Patent US20250360091A1, “COMBINATION OF SGLT2 INHIBITOR AND MENTHOL AND USE THEREOF IN TREATMENT OF HEART DISEASE” (EAST CHINA UNIVERSITY OF SCIENCE AND TECHNOLOGY, priority 2023, published 2025)

Assays:
[1] = tested on: TAC-induced heart failure model; assay: Transverse aortic constriction (TAC)-induced heart failure model (Example 4); assay type: in vivo, C57/6J male mice
Protocol: The transverse aortic constriction (TAC) model is the most commonly used disease model of chronic ventricular hypertrophy, which is used to simulate hypertrophic cardiomyopathy, heart failure, and hypertensive heart disease caused by hypertension or increased intraventricular pressure.
Nine-week-old C57/6J male mice were divided into five groups (sham group, TAC group, 30 mg/kg cmpagliflozin group (E30), 10 mg/kg empagliflozin+15 mg/kg menthol group (E10+M15), and 30 mg/kg empagliflozin+45 mg/kg menthol group (E30+M45)).
Experimental process of aortic arch constriction surgery: hair was removed from the surgical area from the neck to the anterior chest of the experimental mouse, and the surgical area was disinfected with iodine. The neck and chest were opened in the midline, the muscles were bluntly separated, the incision was retracted with retractors, the thymus was dissected, and the aortic arch was exposed. The innominate artery, left common carotid artery, and left subclavian artery were found along the aortic arch. The thread was passed between the right innominate artery and the left common carotid artery, and the constriction needle was paced parallel to the aortic arch and then the thread was tied a knot. After tightening the thread, the constriction needle was slowly withdrawn, that is, quantitative constriction was formed in the aortic arch. The chest cavity was closed, the skin on the neck and chest was sutured and disinfected with iodine. Two weeks after the operation, after confirming the hypertrophy of the heart through cardiac function test, drug administration started, and continued for 4 weeks. The drug administration group was gavaged once a day in the morning, and the sham group and TAC group were gavaged with the same amount of drinking water every morning.
The survival of mice was recorded during the experiment. After 4 weeks of continuous administration, the exercise tolerance of experimental mice was evaluated by rotarod test, suspension test and grip strength test. The rotarod test evaluated the maximum tolerance time of mice at a speed of 35 rpm, the suspension test evaluated the maximum tolerance time of mice forearm suspension, and the grip strength test evaluated the maximum grip strength of mice forepaws. […] After the experiment, the mice were euthanized, the hearts were weighed, the heart-body weight ratio was calculated, and then the hearts were fixed, paraffin-embedded, sliced, and Masson-stained. ImageJ was used to quantify the fibrosis area and calculate the degree of cardiac fibrosis. Graph Pad software was used for data processing and significant differences were calculated (OneWayANOVA was used between multiple groups, and Student's t test was used between two groups).

H9c2 cells = assay: Oil Red O staining of palmitic acid-induced lipid accumulation (Example 6); assay type: cell-based, Rat; details: used alone: EMPA 50 or 100 μM, MEN 200 μM; 24 h after 200 μM palmitic acid 48 h
Protocol: 1. Oil Red O staining. H9c2 cells were seeded in 12-well plates (1×10^5 cells per well) and cultured to 80-90% confluence. The cells were incubated with lipid medium containing 200 μM palmitic acid (Sigma-Aldrich, P0500) for 48 h to induce lipid droplet accumulation. The lipid medium was removed, and the cells were cultured for 24 h with medium containing 50 μM EMPA (E50, EMPA-50), 100 μM EMPA (E100), 200 μM MEN (M200), and 50 μM EMPA+200 μM MEN (E50+M200) but without palmitic acid. After the incubation, the cells were stained with Oil Red. The cells were washed 3 times with PBS and fixed with 4% paraformaldehyde at room temperature for 30 min. They were washed again with PBS 3 times and incubated with Oil Red O working solution at room temperature for 30 min. After rinsing with PBS 3 times, the cells were imaged under a microscope. The red area (positive area of lipid accumulation) was measured using Image J software package. The experiment was divided into 6 groups, black group (blank group, not treated with lipid medium and drugs), control group (control group, treated with lipid medium but not treated with drugs), E50 group (treated with lipid medium and then 50 μM EMPA), E100 (treated with lipid medium and then 100 μM EMPA), M200 (treated with lipid medium and then 200 μM menthol), E50+M200 (treated with lipid medium and then 50 μM empagliflozin+200 μM menthol).

PGC-1α, PPARα, CPT1b = assay: Western blotting of fatty acid metabolism proteins (Example 6); assay type: cell-based, Rat; details: 48 h; menthol 200 μM alone or 50 μM empagliflozin + 200 μM menthol
Protocol: 2. Western blotting. H9c2 cells were seeded in a 12-well plate. After 48 hours of drug treatment, the cells were harvested and the total protein in the cells was extracted with RIPA lysis buffer. After BCA quantification, 4× loading buffer was added and boiled in a 95° C. metal bath for 10 minutes to denature the protein. 5-10 μg of the denatured protein sample was added to SDS-PAGE. After electrophoresis, separation, transfer, and blocking, PGC-1α, PPARα, CPT1b, and GAPDH primary antibody were added and incubated overnight at 4° C. The next day, the primary antibody was recovered, and the corresponding secondary antibody was added and incubated at room temperature for 1 hour. After washing three times, ECL chemiluminescent solution was added to the strips, and immunoblotting analysis was performed using a Tanon gel imager. ImageJ software was used to perform grayscale analysis of the immunoblot bands, GAPDH was used as an internal reference for correction, and the relative expression content of the protein was calculated. The experiment was divided into DMSO group (DMSO treatment group with content not exceeding 0.5%), E50 (50 μM EMPA treatment group), M200 (200 μM menthol treatment group), and E50+M200 (50 μM empagliflozin+200 μM menthol treatment group).

Compound: OC[C@H]1O[C@@H](c2ccc(Cl)c(Cc3ccc(O[C@H]4CCOC4)cc3)c2)[C@H](O)[C@@H](O)[C@@H]1O [empagliflozin]
- myocardial hypertrophy (heart weight to body weight ratio) ([1]; EMPA 30 mg/kg, 4 weeks): significantly improves myocardial hypertrophy
- mouse deaths during the experiment (survival) ([1]; EMPA 30 mg/kg, gavage once daily for 4 weeks): one mouse died
- cardiac function (ejection fraction, fractional shortening, LV diameters) ([1]; empagliflozin 30 mg/kg, 4 weeks): significantly improves TAC-induced cardiac dysfunction
- exercise tolerance (grip strength, rotarod, forearm suspension) ([1]; empagliflozin alone 30 mg/kg, 4 weeks): cannot improve the exercise tolerance
- lipid accumulation in cardiomyocytes (Oil Red O staining area) (H9c2 cells): significantly reduce lipid accumulation

Compound: CC(C)[C@@H]1CC[C@@H](C)C[C@H]1O [menthol, L-menthol]
- lipid accumulation in cardiomyocytes (Oil Red O staining area) (H9c2 cells): significantly reduce lipid accumulation
- expression of PCG-1α/PPARα (PGC-1α, PPARα, CPT1b): significantly increase the expression
- expression of fatty acid transporter CPT1b (PGC-1α, PPARα, CPT1b): upregulate the expression
